Test results reported in US20170355705A1 (GlaxoSmithKline Intellectual Property (No.2) Limited, priority 2014, published 2017).

Target: T1, SIRT1 (Homo sapiens, UniProt Q96EB6)
T1 sequence (Q96EB6 1-747): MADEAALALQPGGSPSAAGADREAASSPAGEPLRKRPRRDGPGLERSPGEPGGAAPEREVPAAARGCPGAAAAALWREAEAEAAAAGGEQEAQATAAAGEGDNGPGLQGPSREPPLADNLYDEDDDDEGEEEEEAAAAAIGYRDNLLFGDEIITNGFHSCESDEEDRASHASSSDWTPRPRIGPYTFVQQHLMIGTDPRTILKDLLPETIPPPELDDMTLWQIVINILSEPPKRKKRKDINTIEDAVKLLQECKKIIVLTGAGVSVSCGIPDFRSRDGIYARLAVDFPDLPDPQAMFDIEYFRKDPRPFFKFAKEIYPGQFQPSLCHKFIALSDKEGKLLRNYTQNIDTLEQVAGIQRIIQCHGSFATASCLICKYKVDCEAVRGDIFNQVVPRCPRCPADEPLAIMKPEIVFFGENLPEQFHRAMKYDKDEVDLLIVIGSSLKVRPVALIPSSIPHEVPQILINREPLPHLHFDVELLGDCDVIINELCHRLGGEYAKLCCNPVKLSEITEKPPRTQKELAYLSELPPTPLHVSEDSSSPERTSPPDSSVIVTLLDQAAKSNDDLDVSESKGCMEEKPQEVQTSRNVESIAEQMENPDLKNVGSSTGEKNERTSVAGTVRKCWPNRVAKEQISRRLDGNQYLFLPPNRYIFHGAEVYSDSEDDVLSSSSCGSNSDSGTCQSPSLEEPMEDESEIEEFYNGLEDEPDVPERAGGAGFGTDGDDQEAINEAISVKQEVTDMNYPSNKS
Assay: Trp mass spectrometry assay of SIRT1 activity (EC1.5, percent maximum activation)
Assay type: biochemical
Settings: Trp mass spectrometry assay; for TRP Activity (EC1.5): EC1.5 = concentration giving 150% activation of SIRT1
Excerpt: Mass spectrometry based assays were used to identify modulators of SIRT1 activity. […] The peptide was labeled with the fluorophore 5TMR (excitation 540 nm/emission 580 nm) at the C-terminus. The sequence of the peptide substrate was based on p53 with several modifications. In addition, the methionine residue naturally present in the sequence was replaced with the norleucine because the methionine may be susceptible to oxidation during synthesis and purification.
The Trp mass spectrometry assay was conducted as follows. […] The SIRT1 protein was obtained by cloning the SirT1 gene into a T7-promoter containing vector, which was then expressed in BL21(DE3) bacterial cells and purified as described in further detail below. Test compound was added at varying concentrations to this reaction mixture and the resulting reactions were monitored. After the 25 minute incubation with SIRT1, 10 μL of 10% formic acid was added to stop the reaction. The resulting reactions were sealed and frozen for later mass spec analysis. The relative SIRT1 activity was then determined by measuring the amount of O-acetyl-ADP-ribose (OAADPR) formed (or, alternatively, the amount of deacetylated Trp peptide generated) by the NAD-dependent sirtuin deacetylation reaction in the presence of varying concentrations of the test compound versus control reactions lacking the test compound. The degree to which the test agent activated deacetylation by SIRT1 was expressed as EC1.5 (i.e., the concentration of compound required to increase SIRT1 activity by 50% over the control lacking test compound), and Percent Maximum Activation (i.e., the maximum activity relative to control (100%) obtained for the test compound).
This time point was the same as that used for test compounds and, within the linear range, the endpoint represents a change in velocity.
For the above assay, SIRT1 protein was expressed and purified as follows. The SirT1 gene was cloned into a T7-promoter containing vector and transformed into BL21(DE3). The protein was expressed by induction with 1 mM IPTG as an N-terminal His-tag fusion protein at 18° C. overnight and harvested at 30,000×g. Cells were lysed with lysozyme in lysis buffer (50 mM Tris-HCl, 2 mM Tris[2-carboxyethyl]phosphine (TCEP), 10 μM ZnCl2, 200 mM NaCl) and further treated with sonication for 10 min for complete lysis. The protein was purified over a Ni-NTA column (Amersham) and fractions containing pure protein were pooled, concentrated and run over a sizing column (Sephadex S200 26/60 global). The peak containing soluble protein was collected and run on an Ion-exchange column (MonoQ). Gradient elution (200 mM-500 mM NaCl) yielded pure protein. This protein was concentrated and dialyzed against dialysis buffer (20 mM Tris-HCl, 2 mM TCEP) overnight. The protein was aliquoted and frozen at −80° C. until further use.
“NT” means not tested; “ND” means not determinable.

[1] = 0.5 μM peptide substrate, 120 μM βNAD+, 10 nM SIRT1, 25 minutes at 25° C.
[2] = percent maximum activation of SIRT1

Structure (SMILES) | TRP MAX RESP (percent maximum fold activation) [1] | TRP Activity (EC1.5) | TRP MAX RESP (percent maximum fold activation) [2] | TRP Activity (EC1.5, concentration of test compound that results in 150% activation of SIRT1) [1]
O=C(Nc1cnccn1)N1c2nc(N3CCOC(C4CC4)C3)ccc2N2CC[C@H]1C2 (some centres unmarked) | A (Fold activation ≧150%) | – | – | –
CN(C)c1cccc(-c2ccc3c(n2)N(C(=O)Nc2cnccn2)[C@H]2CCN3C2)c1 [Example 172, (4S)-7-(3-(dimethylamino)phenyl)-N-(pyrazin-2-yl)-3,4-dihydro-1,4-methanopyrido[2,3-b][1,4]diazepine-5(2H)-carboxamide] | – | B (EC1.5 1-25 μM) | A (Fold activation ≧150%) | –
Cc1cc2c(nc1-c1cccc(C(F)F)c1)N(C(=O)Nc1ccnc(OC[C@@H](O)CO)c1)[C@H]1CCN2C1 [Example 89, (4S)-7-(3-(difluoromethyl)phenyl)-N-(2-((S)-2,3-dihydroxypropoxy)pyridin-4-yl)-8-methyl-3,4-dihydro-1,4-methanopyrido[2,3-b][1,4]diazepine-5(2H)-carboxamide] | – | A (EC1.5<1 μM) | A (Fold activation ≧150%) | –
Cc1cc(-c2nc3c(cc2Br)N2CC[C@@H](C2)N3C(=O)Nc2cccnc2)ccn1 [Example 12, (4S)-8-bromo-7-(2-methylpyridin-4-yl)-N-(pyridin-3-yl)-3,4-dihydro-1,4-methanopyrido[2,3-b][1,4]diazepine-5(2H)-carboxamide] | – | B (EC1.5 1-25 μM) | A (Fold activation ≧150%) | –
O=C(Nc1ccnc(O[C@@H]2CCOC2)n1)N1c2nc(-c3cccc(C(F)(F)F)c3)c(Cl)cc2N2CC[C@H]1C2 [Example 18, (4S)-8-chloro-N-(2-(((R)-tetrahydrofuran-3-yl)oxy)pyrimidin-4-yl)-7-(3-(trifluoromethyl)phenyl)-3,4-dihydro-1,4-methanopyrido[2,3-b][1,4]diazepine-5(2H)-carboxamide] | – | B (EC1.5 1-25 μM) | A (Fold activation ≧150%) | –
Cc1cc(-c2ccc3c(n2)N(C(=O)Nc2cncc(OC(C)C)n2)[C@H]2CCN3C2)ccn1 [Example 221, (4S)-N-(6-isopropoxypyrazin-2-yl)-7-(2-methylpyridin-4-yl)-3,4-dihydro-1,4-methanopyrido[2,3-b][1,4]diazepine-5(2H)-carboxamide] | A (Fold activation ≧150%) | – | – | A (EC1.5<1 μM)
Cc1cc(NC(=O)N2c3nc(-c4ccnc(C)c4)ccc3N3CC[C@H]2C3)ccn1 [Example 235, (4S)-N-7-bis(2-methylpyridin-4-yl)-3,4-dihydro-1,4-methanopyrido[2,3-b][1,4]diazepine-5(2H)-carboxamide] | A (Fold activation ≧150%) | – | – | B (EC1.5 1-25 μM)
CC(C)n1cc(-c2ccc3c(n2)N(C(=O)Nc2cnccn2)[C@H]2CCN3C2)cn1 [Example 252] | A (Fold activation ≧150%) | – | – | –
CC(C)(O)CCOc1cccc(NC(=O)N2c3nc(-c4cccc(C(F)(F)F)c4)c(Cl)cc3N3CC[C@H]2C3)n1 [Example 59, (4S)-8-chloro-N-(6-(3-hydroxy-3-methylbutoxy)pyridin-2-yl)-7-(3-(trifluoromethyl)phenyl)-3,4-dihydro-1,4-methanopyrido[2,3-b][1,4]diazepine-5(2H)-carboxamide] | – | B (EC1.5 1-25 μM) | A (Fold activation ≧150%) | –
Cc1ccc(-c2ccc3c(n2)N(C(=O)NCC(C)(C)C)[C@H]2CCN3C2)cn1 [Example 237, (4S)-7-(6-methylpyridin-3-yl)-N-neopentyl-3,4-dihydro-1,4-methanopyrido[2,3-b][1,4]diazepine-5(2H)-carboxamide] | B (Fold Activation <150%) | – | – | C (EC1.5>25 μM)
O=C(Nc1ccnc(OC[C@H](O)CO)c1)N1c2nc(-c3cnn(C4CC4)c3)c(Cl)cc2N2CC[C@H]1C2 [Example 100, (4S)-8-chloro-7-(1-cyclopropyl-1H-pyrazol-4-yl)-N-(2-((R)-2,3-dihydroxypropoxy)pyridin-4-yl)-3,4-dihydro-1,4-methanopyrido[2,3-b][1,4]diazepine-5(2H)-carboxamide] | – | B (EC1.5 1-25 μM) | A (Fold activation ≧150%) | –
O=C(Nc1ncnc2cccc(F)c12)N1c2nc(-c3cccc(C(F)(F)F)c3)ccc2N2CC[C@H]1C2 [Example 361] | A (Fold activation ≧150%) | – | – | –
Cc1cc(-c2ccc3c(n2)N(C(=O)Nc2cnccn2)[C@H]2CCN3C2)cnc1C#N [Example 222, (4S)-7-(6-cyano-5-methylpyridin-3-yl)-N-(pyrazin-2-yl)-3,4-dihydro-1,4-methanopyrido[2,3-b][1,4]diazepine-5(2H)-carboxamide] | A (Fold activation ≧150%) | – | – | B (EC1.5 1-25 μM)
C[C@@H]1CN(c2ccc3c(n2)N(C(=O)Nc2cnccn2)[C@H]2CCN3C2)CCO1 [Example 124, (4S)-7-((R)-2-methylmorpholino)-N-(pyrazin-2-yl)-3,4-dihydro-1,4-methanopyrido[2,3-b][1,4]diazepine-5(2H)-carboxamide] | – | – | A (Fold activation ≧150%) | –
Cc1cc(C)c(-c2ccc3c(n2)N(C(=O)Nc2cccnc2)[C@H]2CCN3C2)cn1 [Example 236, (4S)-7-(4,6-dimethylpyridin-3-yl)-N-(pyridin-3-yl)-3,4-dihydro-1,4-methano pyrido[2,3-b][1,4]diazepine-5(2H)-carboxamide] | A (Fold activation ≧150%) | – | – | B (EC1.5 1-25 μM)
Cc1cc(-c2ccc3c(n2)N(C(=O)NC2CCC2)[C@H]2CCN3C2)ccn1 [Example 183, (4S)-N-cyclobutyl-7-(2-methylpyridin-4-yl)-3,4-dihydro-1,4-methanopyrido[2,3-b][1,4]diazepine-5(2H)-carboxamide] | – | B (EC1.5 1-25 μM) | A (Fold activation ≧150%) | –
Cc1cncc(-c2ccc3c(n2)N(C(=O)Nc2cnccn2)[C@H]2CCN3C2)c1 [Example 154, (4S)-7-(5-methylpyridin-3-yl)-N-(pyrazin-2-yl)-3,4-dihydro-1,4-methanopyrido[2,3-b][1,4]diazepine-5(2H)-carboxamide] | – | B (EC1.5 1-25 μM) | A (Fold activation ≧150%) | –
Cc1ncc(-c2ccc3c(n2)N(C(=O)Nc2cnccn2)[C@H]2CCN3C2)s1 [Example 214, (4S)-7-(2-methylthiazol-5-yl)-N-(pyrazin-2-yl)-3,4-dihydro-1,4-methanopyrido[2,3-b][1,4]diazepine-5(2H)-carboxamide] | A (Fold activation ≧150%) | – | – | B (EC1.5 1-25 μM)
